According to publication PMC6154583, “Optimized 4,5-Diarylimidazoles as Potent/Selective Inhibitors of Protein Kinase CK1δ and Their Structural Relation to p38α MAPK” (Molecules : A Journal of Synthetic Chemistry and Natural …, 2017):

Legend:
AKT1 aa106-480 = molecular target: T1, AKT1 aa106-480 (Homo sapiens, UniProt P31749); experiment: ProQinase 33PanQinase selectivity profiling; format: biochemical; conditions: 100 nM, relative to control, read-out: Residual activity (%)
T1 construct: AKT1 aa106-480; purchased ProQinase GmbH (Freiburg, Germany)

ACV-R2A = molecular target: T2, ACV-R2A (Homo sapiens, UniProt P27037); experiment: ProQinase 33PanQinase selectivity profiling; format: biochemical; conditions: 100 nM, relative to control, read-out: Residual activity (%)
T2 construct: purchased ProQinase GmbH (Freiburg, Germany)
T2 sequence (P27037 20-513): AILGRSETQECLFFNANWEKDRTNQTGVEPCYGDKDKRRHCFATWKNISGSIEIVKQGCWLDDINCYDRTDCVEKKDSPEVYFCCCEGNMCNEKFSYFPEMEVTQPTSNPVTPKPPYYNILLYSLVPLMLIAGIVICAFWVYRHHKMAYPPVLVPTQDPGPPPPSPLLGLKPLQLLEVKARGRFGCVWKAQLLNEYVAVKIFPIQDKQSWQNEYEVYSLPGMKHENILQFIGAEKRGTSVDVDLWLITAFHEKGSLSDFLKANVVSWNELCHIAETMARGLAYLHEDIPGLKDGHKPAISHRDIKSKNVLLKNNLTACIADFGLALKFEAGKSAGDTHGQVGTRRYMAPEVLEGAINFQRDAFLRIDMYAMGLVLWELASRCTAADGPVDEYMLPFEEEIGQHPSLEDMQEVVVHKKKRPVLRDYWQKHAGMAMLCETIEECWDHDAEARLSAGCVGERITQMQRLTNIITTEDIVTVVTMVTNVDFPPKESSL

DNA-PK = DNA-PK (Homo sapiens, UniProt P78527); experiment: ProQinase 33PanQinase selectivity profiling; format: biochemical; conditions: 100 nM, relative to control, read-out: Residual activity (%)
CDK3/CycC = CDK3/CycC (Homo sapiens, UniProt Q00526); experiment: ProQinase 33PanQinase selectivity profiling; format: biochemical; conditions: 100 nM, relative to control, read-out: Residual activity (%)
CAMK1D = CAMK1D (Homo sapiens, UniProt Q8IU85); experiment: ProQinase 33PanQinase selectivity profiling; format: biochemical; conditions: 100 nM, relative to control, read-out: Residual activity (%)
B-RAF V600E = B-RAF V600E (Homo sapiens, UniProt P15056, V600E); experiment: ProQinase 33PanQinase selectivity profiling; format: biochemical; conditions: 100 nM, relative to control, read-out: Residual activity (%)
CLK3 = molecular target: T3, CLK3 (Homo sapiens, UniProt P49761); experiment: ProQinase 33PanQinase selectivity profiling; format: biochemical; conditions: 100 nM, relative to control, read-out: Residual activity (%)
T3 construct: purchased ProQinase GmbH
T3 sequence (P49761 whole entry): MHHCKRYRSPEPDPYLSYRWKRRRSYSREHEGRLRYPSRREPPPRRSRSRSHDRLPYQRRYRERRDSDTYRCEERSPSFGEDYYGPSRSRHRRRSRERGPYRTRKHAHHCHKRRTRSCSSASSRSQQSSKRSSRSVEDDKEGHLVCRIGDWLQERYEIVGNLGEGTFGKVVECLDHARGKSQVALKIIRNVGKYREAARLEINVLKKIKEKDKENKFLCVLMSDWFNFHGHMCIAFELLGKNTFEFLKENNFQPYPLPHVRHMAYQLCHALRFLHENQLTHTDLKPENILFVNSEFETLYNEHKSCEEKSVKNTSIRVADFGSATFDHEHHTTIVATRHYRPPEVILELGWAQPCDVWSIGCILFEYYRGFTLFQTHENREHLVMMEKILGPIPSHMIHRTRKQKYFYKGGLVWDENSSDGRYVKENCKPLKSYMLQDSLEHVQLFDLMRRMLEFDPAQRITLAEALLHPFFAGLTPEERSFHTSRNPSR

CDK1/CycB1 = CDK1/CycB1 (Homo sapiens, UniProt P06493); experiment: ProQinase 33PanQinase selectivity profiling; format: biochemical; conditions: 100 nM, relative to control, read-out: Residual activity (%)
Sequence of CDK1/CycB1 (P06493 whole entry): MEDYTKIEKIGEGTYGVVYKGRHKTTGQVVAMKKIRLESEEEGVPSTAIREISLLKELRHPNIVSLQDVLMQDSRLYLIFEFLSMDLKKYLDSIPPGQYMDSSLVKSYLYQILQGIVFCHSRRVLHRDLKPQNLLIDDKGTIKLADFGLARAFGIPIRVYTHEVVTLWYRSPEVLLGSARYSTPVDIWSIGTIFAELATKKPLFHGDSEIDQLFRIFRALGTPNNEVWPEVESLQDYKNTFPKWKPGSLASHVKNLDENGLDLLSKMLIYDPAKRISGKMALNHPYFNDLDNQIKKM
Sequence of CDK1/CycB1 (P14635 whole entry partner): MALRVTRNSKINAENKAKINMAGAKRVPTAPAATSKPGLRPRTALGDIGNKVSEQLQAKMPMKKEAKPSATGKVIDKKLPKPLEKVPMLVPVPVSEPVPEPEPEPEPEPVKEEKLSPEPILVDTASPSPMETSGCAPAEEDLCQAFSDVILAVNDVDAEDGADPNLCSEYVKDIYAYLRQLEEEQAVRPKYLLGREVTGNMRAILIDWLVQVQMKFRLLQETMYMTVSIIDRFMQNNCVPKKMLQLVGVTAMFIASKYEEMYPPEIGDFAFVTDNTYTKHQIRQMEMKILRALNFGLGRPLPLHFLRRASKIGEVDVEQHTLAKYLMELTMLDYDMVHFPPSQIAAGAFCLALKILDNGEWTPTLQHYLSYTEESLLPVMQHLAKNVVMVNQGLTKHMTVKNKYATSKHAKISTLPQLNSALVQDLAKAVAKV

BMPR1A = molecular target: T4, BMPR1A (Homo sapiens, UniProt P36894); experiment: ProQinase 33PanQinase selectivity profiling; format: biochemical; conditions: 100 nM, relative to control, read-out: Residual activity (%)
T4 construct: purchased ProQinase GmbH
T4 sequence (P36894 24-532): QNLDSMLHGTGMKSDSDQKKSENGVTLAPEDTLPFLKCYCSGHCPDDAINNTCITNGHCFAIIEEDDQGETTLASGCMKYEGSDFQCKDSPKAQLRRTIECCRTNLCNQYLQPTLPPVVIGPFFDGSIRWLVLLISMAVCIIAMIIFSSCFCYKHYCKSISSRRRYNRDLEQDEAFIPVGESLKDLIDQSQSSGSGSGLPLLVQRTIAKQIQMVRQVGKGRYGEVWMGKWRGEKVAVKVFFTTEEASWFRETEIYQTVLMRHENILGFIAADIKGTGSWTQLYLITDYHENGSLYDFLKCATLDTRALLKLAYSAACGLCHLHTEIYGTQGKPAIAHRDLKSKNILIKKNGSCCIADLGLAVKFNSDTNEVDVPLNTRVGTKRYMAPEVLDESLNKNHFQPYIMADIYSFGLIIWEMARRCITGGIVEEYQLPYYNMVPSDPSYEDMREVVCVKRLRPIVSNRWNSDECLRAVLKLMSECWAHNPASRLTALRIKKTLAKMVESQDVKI

EPHA3 = EPHA3 (Homo sapiens, UniProt P29320); experiment: ProQinase 33PanQinase selectivity profiling; format: biochemical; conditions: 100 nM, relative to control, read-out: Residual activity (%)
EPHA5 = EPHA5 (Homo sapiens, UniProt P54756); experiment: ProQinase 33PanQinase selectivity profiling; format: biochemical; conditions: 100 nM, relative to control, read-out: Residual activity (%)
B-RAF = B-RAF (Homo sapiens, UniProt P15056); experiment: ProQinase 33PanQinase selectivity profiling; format: biochemical; conditions: 100 nM, relative to control, read-out: Residual activity (%)
DMPK = DMPK (Homo sapiens, UniProt Q09013); experiment: ProQinase 33PanQinase selectivity profiling; format: biochemical; conditions: 100 nM, relative to control, read-out: Residual activity (%)
CK1-epsilon = CK1-epsilon (Homo sapiens, UniProt P49674); experiment: ProQinase 33PanQinase selectivity profiling; format: biochemical; conditions: 100 nM, relative to control, read-out: Residual activity (%)
EEF2K = EEF2K (Homo sapiens, UniProt O00418); experiment: ProQinase 33PanQinase selectivity profiling; format: biochemical; conditions: 100 nM, relative to control, read-out: Residual activity (%)
BTK = BTK (Homo sapiens, UniProt Q06187); experiment: ProQinase 33PanQinase selectivity profiling; format: biochemical; conditions: 100 nM, relative to control, read-out: Residual activity (%)
Sequence of BTK (Q06187 whole entry): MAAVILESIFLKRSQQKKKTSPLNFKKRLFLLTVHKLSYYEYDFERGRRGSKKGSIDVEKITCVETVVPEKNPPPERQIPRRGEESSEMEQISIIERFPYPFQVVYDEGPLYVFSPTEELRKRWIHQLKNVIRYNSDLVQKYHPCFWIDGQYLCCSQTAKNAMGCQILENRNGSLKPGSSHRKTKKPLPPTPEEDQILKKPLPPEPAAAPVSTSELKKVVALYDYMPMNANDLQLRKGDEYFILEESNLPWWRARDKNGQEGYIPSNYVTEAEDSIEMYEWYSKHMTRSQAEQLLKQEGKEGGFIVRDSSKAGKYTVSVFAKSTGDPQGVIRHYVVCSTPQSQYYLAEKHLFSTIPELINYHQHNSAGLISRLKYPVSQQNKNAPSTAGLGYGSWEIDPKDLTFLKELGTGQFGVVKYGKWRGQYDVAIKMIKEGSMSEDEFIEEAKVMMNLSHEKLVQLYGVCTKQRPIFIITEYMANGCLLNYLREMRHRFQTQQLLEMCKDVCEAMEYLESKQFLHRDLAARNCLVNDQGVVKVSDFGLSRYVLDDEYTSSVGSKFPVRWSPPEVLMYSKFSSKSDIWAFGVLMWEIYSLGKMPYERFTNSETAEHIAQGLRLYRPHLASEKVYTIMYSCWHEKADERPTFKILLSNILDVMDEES

Aurora-C = molecular target: T5, Aurora-C (Homo sapiens, UniProt Q9UQB9); experiment: ProQinase 33PanQinase selectivity profiling; format: biochemical; conditions: 100 nM, relative to control, read-out: Residual activity (%)
T5 construct: purchased ProQinase GmbH (Freiburg, Germany)
T5 sequence (Q9UQB9 whole entry): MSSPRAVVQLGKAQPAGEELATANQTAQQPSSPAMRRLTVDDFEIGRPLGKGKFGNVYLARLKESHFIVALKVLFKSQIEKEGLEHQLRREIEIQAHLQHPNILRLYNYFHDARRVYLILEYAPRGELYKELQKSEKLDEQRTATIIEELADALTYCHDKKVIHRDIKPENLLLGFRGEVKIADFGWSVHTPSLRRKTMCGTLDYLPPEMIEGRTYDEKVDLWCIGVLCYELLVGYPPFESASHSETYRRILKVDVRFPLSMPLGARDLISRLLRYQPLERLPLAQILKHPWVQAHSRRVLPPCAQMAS

JNK3 = JNK3 (Homo sapiens, UniProt P53779); experiment: ProQinase 33PanQinase selectivity profiling; format: biochemical; conditions: 100 nM, relative to control, read-out: residual activity
Sequence of JNK3 (P53779 whole entry): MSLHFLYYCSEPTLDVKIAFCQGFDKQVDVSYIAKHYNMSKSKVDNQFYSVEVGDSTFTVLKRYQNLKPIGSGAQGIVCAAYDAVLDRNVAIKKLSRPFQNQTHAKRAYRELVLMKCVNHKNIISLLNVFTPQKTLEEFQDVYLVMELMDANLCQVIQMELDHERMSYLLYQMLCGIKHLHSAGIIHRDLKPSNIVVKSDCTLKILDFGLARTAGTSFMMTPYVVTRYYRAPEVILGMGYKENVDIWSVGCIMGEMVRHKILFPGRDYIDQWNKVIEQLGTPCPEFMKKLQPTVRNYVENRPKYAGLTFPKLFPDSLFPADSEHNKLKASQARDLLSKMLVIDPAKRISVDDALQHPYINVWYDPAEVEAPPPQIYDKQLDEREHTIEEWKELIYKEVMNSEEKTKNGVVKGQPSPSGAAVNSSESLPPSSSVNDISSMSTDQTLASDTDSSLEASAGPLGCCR

ACV-R2B = molecular target: T6, ACV-R2B (Homo sapiens, UniProt Q13705); experiment: ProQinase 33PanQinase selectivity profiling; format: biochemical; conditions: 100 nM, relative to control, read-out: Residual activity (%)
T6 construct: purchased ProQinase GmbH (Freiburg, Germany)

ACV-RL1 = molecular target: T7, ACV-RL1 (Homo sapiens, UniProt P37023); experiment: ProQinase 33PanQinase selectivity profiling; format: biochemical; conditions: 100 nM, relative to control, read-out: Residual activity (%)
T7 construct: purchased ProQinase GmbH (Freiburg, Germany)

BRSK2 = BRSK2 (Homo sapiens, UniProt Q8IWQ3); experiment: ProQinase 33PanQinase selectivity profiling; format: biochemical; conditions: 100 nM, relative to control, read-out: Residual activity (%)
Sequence of BRSK2 (Q8IWQ3 whole entry): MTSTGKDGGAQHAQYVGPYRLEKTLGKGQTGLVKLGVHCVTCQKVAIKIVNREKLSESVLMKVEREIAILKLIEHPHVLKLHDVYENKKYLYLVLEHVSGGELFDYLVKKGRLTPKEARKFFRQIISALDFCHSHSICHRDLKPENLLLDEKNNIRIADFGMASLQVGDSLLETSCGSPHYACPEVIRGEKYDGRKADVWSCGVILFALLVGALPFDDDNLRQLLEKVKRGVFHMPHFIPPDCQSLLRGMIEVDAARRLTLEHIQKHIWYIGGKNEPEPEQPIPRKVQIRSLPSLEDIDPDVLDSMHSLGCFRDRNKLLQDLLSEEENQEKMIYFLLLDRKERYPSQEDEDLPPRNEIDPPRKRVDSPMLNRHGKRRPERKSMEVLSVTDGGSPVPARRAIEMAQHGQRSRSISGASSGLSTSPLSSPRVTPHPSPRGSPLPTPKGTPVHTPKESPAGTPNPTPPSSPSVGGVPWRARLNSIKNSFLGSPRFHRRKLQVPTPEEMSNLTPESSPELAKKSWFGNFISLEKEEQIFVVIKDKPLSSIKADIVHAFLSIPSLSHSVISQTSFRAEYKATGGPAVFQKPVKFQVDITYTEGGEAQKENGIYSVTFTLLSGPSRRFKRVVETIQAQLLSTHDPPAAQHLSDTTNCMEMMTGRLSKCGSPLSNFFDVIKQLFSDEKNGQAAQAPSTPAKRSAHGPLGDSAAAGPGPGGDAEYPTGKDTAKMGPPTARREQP

DDR2 = DDR2 (Homo sapiens, UniProt Q16832); experiment: ProQinase 33PanQinase selectivity profiling; format: biochemical; conditions: 100 nM, relative to control, read-out: Residual activity (%)
DYRK2 = DYRK2 (Homo sapiens, UniProt Q92630); experiment: ProQinase 33PanQinase selectivity profiling; format: biochemical; conditions: 100 nM, relative to control, read-out: Residual activity (%)
Panc89 cells = experiment: MTT viability assay; format: cell-based, human; conditions: Homo sapiens, 48 h incubation, mean ± SD, n = 3
Protocol: (§1) The human pancreatic cancer cell lines Colo357 [61], Panc-1 [62], and MiaPaCa-2 [63] were grown in Dulbecco’s modified Eagle’s medium (DMEM). Panc89 [64] was grown in DMEM:RPMI-1640 medium in ratio 1:1. The human colon adenocarcinoma cell line HT-29 [65] was grown in McCoy’s 5A medium. All media were supplemented with 10% fetal calf serum (FCS), 100 units·mL^−1 penicillin, 100 µg∙mL^−1 streptomycin and 2 mM glutamine. All cells were grown at 37 °C in a humidified 5% carbon dioxide atmosphere.
(§2) In order to determine the cytotoxic effects of investigated inhibitors conventional MTT assay were used. 1 × 10^4 cells∙well^−1 were seeded in 96-well cell culture plates and cultivated for 24 h. Cell lines were exposed to increasing concentrations of the indicated inhibitor compounds, with untreated and DMSO-treated cells serving as control. After an incubation period of 48 h 10 µL of MTT solution (5 mg∙mL^−1 in PBS) were added and cells were incubated for 4 h. MTT-containing medium was carefully removed and 100 µL acidic isopropanol (0.04 N HCl in isopropanol) per well were added. For dissolution of formazan crystals plates were shaken for 30 min on an orbital shaker in the dark. Finally, dissolved crystals were measured spectrophotometrically at […]. All experiments were performed in triplicate with four technical replicates per assay. Results were normalized considering the mean optical density value of control wells as 100%. GraphPad Prism 6 (La Jolla, CA, USA) software was used to calculate EC50 values.

Colo357 cells = experiment: MTT viability assay; format: cell-based, human; conditions: Homo sapiens, COLO357, 48 h incubation, mean ± SD, n = 3
Protocol: as §1, §2

CDK4/CycD1 = CDK4/CycD1 (Homo sapiens, UniProt P11802); experiment: ProQinase 33PanQinase selectivity profiling; format: biochemical; conditions: 100 nM, relative to control, read-out: Residual activity (%)
ALK (GST-HIS-tag) = molecular target: T8, ALK (GST-HIS-tag) (Homo sapiens, UniProt Q9UM73); experiment: ProQinase 33PanQinase selectivity profiling; format: biochemical; conditions: 100 nM, relative to control, read-out: Residual activity (%)
T8 construct: GST; HIS; purchased ProQinase GmbH (Freiburg, Germany)

Aurora-A = Aurora-A (Homo sapiens, UniProt O14965); experiment: ProQinase 33PanQinase selectivity profiling; format: biochemical; conditions: 100 nM, relative to control, read-out: Residual activity (%)
CAMK2B = CAMK2B (Homo sapiens, UniProt Q13554); experiment: ProQinase 33PanQinase selectivity profiling; format: biochemical; conditions: 100 nM, relative to control, read-out: Residual activity (%)
EIF2AK3 = molecular target: T9, EIF2AK3 (Homo sapiens, UniProt Q9NZJ5); experiment: ProQinase 33PanQinase selectivity profiling; format: biochemical; conditions: 100 nM, relative to control, read-out: Residual activity (%)
T9 construct: purchased ProQinase GmbH

ABL2 = ABL2 (Homo sapiens, UniProt P42684); experiment: ProQinase 33PanQinase selectivity profiling; format: biochemical; conditions: 100 nM, relative to control, read-out: Residual activity (%)
CDK3/CycE1 = CDK3/CycE1 (Homo sapiens, UniProt Q00526); experiment: ProQinase 33PanQinase selectivity profiling; format: biochemical; conditions: 100 nM, relative to control, read-out: Residual activity (%)
CK1-gamma2 = CK1-gamma2 (Homo sapiens, UniProt P78368); experiment: ProQinase 33PanQinase selectivity profiling; format: biochemical; conditions: 100 nM, relative to control
Sequence of CK1-gamma2 (P78368 whole entry): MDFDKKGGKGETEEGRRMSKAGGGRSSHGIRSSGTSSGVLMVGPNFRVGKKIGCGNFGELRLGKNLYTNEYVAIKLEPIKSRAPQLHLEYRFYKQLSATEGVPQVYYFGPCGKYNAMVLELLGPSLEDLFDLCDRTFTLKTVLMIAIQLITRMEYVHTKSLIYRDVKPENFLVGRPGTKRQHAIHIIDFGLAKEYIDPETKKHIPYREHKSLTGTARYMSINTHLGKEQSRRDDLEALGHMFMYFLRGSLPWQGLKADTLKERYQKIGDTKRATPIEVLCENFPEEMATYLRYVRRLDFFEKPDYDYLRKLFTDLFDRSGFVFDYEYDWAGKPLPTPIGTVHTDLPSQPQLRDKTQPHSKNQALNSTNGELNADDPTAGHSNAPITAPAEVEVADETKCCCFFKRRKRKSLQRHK

COc1ccc(OC)c(CCC(=O)Nc2cc(-c3nc(SC)[nH]c3-c3ccc(F)cc3)ccn2)c1 [11b, 3-(2,5-Dimethoxyphenyl)-N-(4-(5-(4-fluorophenyl)-2-(methylthio)-1H-imidazol-4-yl)-pyridin-2-yl)-propanamide]
remaining activity at 0.1 µM (AKT1 aa106-480): 90%
remaining activity at 0.1 µM (ACV-R2A): 98%
remaining activity at 0.1 µM (DNA-PK): 95%
remaining activity at 0.1 µM (CDK3/CycC): 95%
remaining activity at 0.1 µM (CAMK1D): 78%
remaining activity at 0.1 µM (B-RAF V600E): 102%
remaining activity at 0.1 µM (CLK3): 98%
remaining activity at 0.1 µM (CDK1/CycB1): 95%
remaining activity at 0.1 µM (BMPR1A): 102%
remaining activity at 0.1 µM (EPHA3): 97%
remaining activity at 0.1 µM (EPHA5): 97%
remaining activity at 0.1 µM (B-RAF): 91%
remaining activity at 0.1 µM (DMPK): 103%
remaining activity at 0.1 µM (CK1-epsilon): 7%
remaining activity at 0.1 µM (EEF2K): 84%
remaining activity at 0.1 µM (BTK): 105%
remaining activity at 0.1 µM (Aurora-C): 93%
remaining activity at 0.1 µM (JNK3): 37%
remaining activity at 0.1 µM (ACV-R2B): 97%
remaining activity at 0.1 µM (ACV-RL1): 99%
remaining activity at 0.1 µM (BRSK2): 105%
remaining activity at 0.1 µM (DDR2): 101%
remaining activity at 0.1 µM (DYRK2): 99%
EC50 (Panc89 cells): 1.5 ± 0.4 µM
EC50 (Colo357 cells): 3.5 ± 0.3 µM
remaining activity at 0.1 µM (CDK4/CycD1): 98%
remaining activity at 0.1 µM (ALK (GST-HIS-tag)): 114%
remaining activity at 0.1 µM (Aurora-A): 93%
remaining activity at 0.1 µM (CAMK2B): 103%
remaining activity at 0.1 µM (EIF2AK3): 91%
remaining activity at 0.1 µM (ABL2): 91%
remaining activity at 0.1 µM (CDK3/CycE1): 98%
Residual activity (%) (CK1-gamma2): unaffected
remaining activity at 0.1 µM (CK1-gamma2; read-out: Residual activity (%)): 91%
